From patent US10160755B2 (Plexxikon Inc., priority 2015, dated 2018) come the findings set out here.

The target in one assay is T1, FLT3-ITD (Homo sapiens, UniProt P36888).
T1 construct: FLT3-ITD; Invitrogen #PV6190
T1 sequence (P36888 1-993): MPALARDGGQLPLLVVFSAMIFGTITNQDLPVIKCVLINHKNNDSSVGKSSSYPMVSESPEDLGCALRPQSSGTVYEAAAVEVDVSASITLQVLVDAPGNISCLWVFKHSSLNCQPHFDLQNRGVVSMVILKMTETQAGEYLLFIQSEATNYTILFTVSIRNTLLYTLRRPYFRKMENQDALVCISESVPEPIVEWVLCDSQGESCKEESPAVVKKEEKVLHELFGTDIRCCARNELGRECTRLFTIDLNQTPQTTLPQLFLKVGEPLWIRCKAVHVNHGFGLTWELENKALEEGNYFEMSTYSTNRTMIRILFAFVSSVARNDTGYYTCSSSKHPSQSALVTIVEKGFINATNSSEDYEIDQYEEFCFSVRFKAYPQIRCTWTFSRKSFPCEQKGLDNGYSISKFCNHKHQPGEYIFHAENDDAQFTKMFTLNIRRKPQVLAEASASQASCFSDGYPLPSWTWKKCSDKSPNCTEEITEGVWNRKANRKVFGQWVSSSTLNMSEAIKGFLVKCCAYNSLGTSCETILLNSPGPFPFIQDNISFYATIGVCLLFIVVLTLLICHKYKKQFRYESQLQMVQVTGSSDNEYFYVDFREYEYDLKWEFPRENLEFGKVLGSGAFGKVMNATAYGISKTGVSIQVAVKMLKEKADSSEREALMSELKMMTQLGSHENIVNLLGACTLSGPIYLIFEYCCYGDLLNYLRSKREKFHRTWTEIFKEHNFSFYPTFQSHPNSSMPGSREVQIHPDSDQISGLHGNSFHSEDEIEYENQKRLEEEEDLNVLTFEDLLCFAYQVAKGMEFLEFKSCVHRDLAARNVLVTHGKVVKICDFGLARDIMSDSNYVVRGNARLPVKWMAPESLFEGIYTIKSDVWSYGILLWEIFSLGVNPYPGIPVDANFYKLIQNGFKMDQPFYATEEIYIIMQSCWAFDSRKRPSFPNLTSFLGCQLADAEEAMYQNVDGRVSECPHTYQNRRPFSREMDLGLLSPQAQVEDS
Nature of the assay: FLT3-ITD biochemical kinase assay (AlphaScreen). Summed up:
(§1)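 First, recombinant FLT3 variant phosphorylates a biotinylated poly(Glu4-Tyr) peptide (30 nM) with ATP at 10 μM (D835Y) or 100 μM (ITD). Streptavidin donor beads are then added for 20 min at room temperature, followed by anti-phosphotyrosine PY20 acceptor beads for 60 min. Signal at 580 nm gives IC50.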
A general note: In Alpha technology, singlet oxygen from a donor bead excites a nearby acceptor bead.

The target in another assay is T2, FLT3-D835Y (Homo sapiens, UniProt P36888, D835Y).
T2 construct: purchased Invitrogen PV3967
T2 sequence (P36888 27-993 D835Y): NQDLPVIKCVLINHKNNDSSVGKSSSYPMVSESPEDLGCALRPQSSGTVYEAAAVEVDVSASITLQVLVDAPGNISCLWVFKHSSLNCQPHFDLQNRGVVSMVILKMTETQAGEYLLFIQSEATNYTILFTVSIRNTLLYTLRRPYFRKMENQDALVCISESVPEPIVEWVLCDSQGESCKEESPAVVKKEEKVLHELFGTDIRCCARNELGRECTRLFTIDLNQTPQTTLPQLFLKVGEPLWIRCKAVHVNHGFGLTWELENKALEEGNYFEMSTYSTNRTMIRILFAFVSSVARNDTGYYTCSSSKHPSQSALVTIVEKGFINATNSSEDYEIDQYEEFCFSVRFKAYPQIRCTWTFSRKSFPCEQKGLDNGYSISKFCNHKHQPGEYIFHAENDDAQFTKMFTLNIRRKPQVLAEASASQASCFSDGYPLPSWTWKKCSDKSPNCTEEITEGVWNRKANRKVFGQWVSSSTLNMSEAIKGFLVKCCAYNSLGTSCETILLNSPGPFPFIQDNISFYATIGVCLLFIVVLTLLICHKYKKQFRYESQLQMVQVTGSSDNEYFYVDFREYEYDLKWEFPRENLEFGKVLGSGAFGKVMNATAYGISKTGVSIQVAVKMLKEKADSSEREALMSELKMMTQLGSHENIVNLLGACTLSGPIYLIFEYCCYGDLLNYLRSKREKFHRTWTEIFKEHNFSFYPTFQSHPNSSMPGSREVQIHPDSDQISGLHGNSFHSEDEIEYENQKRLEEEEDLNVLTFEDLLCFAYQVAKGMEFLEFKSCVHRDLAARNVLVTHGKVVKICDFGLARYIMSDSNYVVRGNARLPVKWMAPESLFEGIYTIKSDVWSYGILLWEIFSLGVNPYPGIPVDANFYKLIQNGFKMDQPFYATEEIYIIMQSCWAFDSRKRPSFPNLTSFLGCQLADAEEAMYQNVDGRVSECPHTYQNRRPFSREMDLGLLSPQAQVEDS
Nature of the assay: FLT3-D835Y biochemical kinase assay (AlphaScreen). A digest of the protocol:
as §1

By IC50 is commonly meant the point on the concentration scale where inhibition reaches its midpoint. A low value points to greater potency. On to `O=S1(=O)CCCCN1c1cccc(-c2cnc3[nH]cc(-c4ccc5ncn(C6CCCNC6)c5c4)c3n2)c1` (stereo not drawn) [P-253, 2-[3-[7-[3-(3-piperidyl)benzimidazol-5-yl]-5H-pyrrolo[2,3-b]pyrazin-2-yl]phenyl]thiazinane 1,1-dioxide], for which the IC50 on FLT3-ITD and at FLT3-D835Y was 0.0001 to 1 µM each time.
On to `CC(C)n1cnc2ccc(-c3c[nH]c4ncc(-c5cnn(C(F)F)c5)cc34)cc21` [P-267, 5-[1-(difluoromethyl)pyrazol-4-yl]-3-(3-isopropylbenzimidazol-5-yl)-1H-pyrrolo[2,3-b]pyridine], for which the IC50 at FLT3-ITD and on FLT3-D835Y was 0.0001 to 1 µM in each case.
As for `COc1cc(-c2cnc3[nH]cc(-c4ccc5ncn(C(C)(C)CO)c5c4)c3n2)ccn1` [P-186, 2-[6-[2-(2-methoxy-4-pyridyl)-5H-pyrrolo[2,3-b]pyrazin-7-yl]benzimidazol-1-yl]-2-methyl-propan-1-ol], the IC50 on FLT3-ITD and against FLT3-D835Y was 0.0001 to 1 µM in each case.
Consider `CC(C)(C)n1cnc2ccc(-c3c[nH]c4ncc(-c5cnn(C(F)F)c5)cc34)cc21` [P-251, 1-tert-butyl-6-[5-[1-(difluoromethyl)pyrazol-4-yl]-1H-pyrrolo[2,3-b]pyridin-3-yl]benzimidazole], for which the IC50 on FLT3-ITD and at FLT3-D835Y was 0.0001 to 1 µM in each case.
On to `N#Cc1cccc(C#Cc2cnc3[nH]cc(-c4ccc5ncn(C6CCCNC6)c5c4)c3c2)c1` (stereo not drawn) [P-243, 3-[2-[3-[3-(3-piperidyl)benzimidazol-5-yl]-1H-pyrrolo[2,3-b]pyridin-5-yl]ethynyl]benzonitrile], for which the IC50 against FLT3-ITD and against FLT3-D835Y was 0.0001 to 1 µM in each case.
For the compound `CC(C)(C)n1cnc2ccc(-c3c[nH]c4ncc(-c5cnn(CC(F)(F)F)c5)nc34)cc21` [P-256, 7-(3-tert-butylbenzimidazol-5-yl)-2-[1-(2,2,2-trifluoroethyl)pyrazol-4-yl]-5H-pyrrolo[2,3-b]pyrazine], the IC50 against FLT3-ITD and at FLT3-D835Y was 0.0001 to 1 µM in each case.
For the compound `COc1cc(C#Cc2cnc3[nH]cc(-c4ccc5ncn(C(C)(C)C)c5c4)c3c2)ccn1` [P-240, 1-(tert-butyl)-6-(5-((2-methoxypyridin-4-yl)ethynyl)-1H-pyrrolo[2,3-b]pyridin-3-yl)-1H-benzo[d]imidazole], the IC50 against FLT3-ITD and against FLT3-D835Y was 0.0001 to 1 µM throughout.
For the compound `COc1cc(-c2cnc3[nH]cc(-c4ccc5ncn(C(C)C)c5c4)c3n2)ccn1` [P-113, 7-(3-isopropylbenzimidazol-5-yl)-2-(2-methoxy-4-pyridyl)-5H-pyrrolo[2,3-b]pyrazine], the IC50 against FLT3-ITD and against FLT3-D835Y was 0.0001 to 1 µM in each case.
In the case of `CC(C)(C)n1cnc2ccc(-c3c[nH]c4ncc(C#Cc5cccc(C#N)c5)cc34)cc21` [P-242, 3-[2-[3-(3-tert-butylbenzimidazol-5-yl)-1H-pyrrolo[2,3-b]pyridin-5-yl]ethynyl]benzonitrile], the IC50 against FLT3-ITD and against FLT3-D835Y was 0.0001 to 1 µM throughout.
As for `O=S1(=O)CCCN1c1cccc(-c2cnc3[nH]cc(-c4ccc5ncn(C6CCCNC6)c5c4)c3n2)c1` (stereo not drawn) [P-273, 2-[3-[7-[3-(3-piperidyl)benzimidazol-5-yl]-5H-pyrrolo[2,3-b]pyrazin-2-yl]phenyl]-1,2-thiazolidine 1,1-dioxide], the IC50 at FLT3-ITD and at FLT3-D835Y was 0.0001 to 1 µM in each case.
`COc1ncccc1C#Cc1cnc2[nH]cc(-c3ccc4ncn(C(C)(C)C)c4c3)c2n1` [P-250, 7-(3-tert-butylbenzimidazol-5-yl)-2-[2-(2-methoxy-3-pyridyl)ethynyl]-5H-pyrrolo[2,3-b]pyrazine]: the IC50 against FLT3-ITD and at FLT3-D835Y was 0.0001 to 1 µM throughout.
For the compound `CC(C)(C)n1cnc2ccc(-c3c[nH]c4ncc(-c5cnc(N6CCOCC6)nc5)cc34)cc21` [P-266, 4-[5-[3-(3-tert-butylbenzimidazol-5-yl)-1H-pyrrolo[2,3-b]pyridin-5-yl]pyrimidin-2-yl]morpholine], the IC50 on FLT3-ITD and on FLT3-D835Y was 0.0001 to 1 µM throughout.
Take `CN(c1cccc(-c2cnc3[nH]cc(-c4ccc5ncn(C)c5c4)c3c2)c1)S(C)(=O)=O` [P-120, N-methyl-N-[3-[3-(3-methylbenzimidazol-5-yl)-1H-pyrrolo[2,3-b]pyridin-5-yl]phenyl]methanesulfonamide]: the IC50 against FLT3-ITD and against FLT3-D835Y was 0.0001 to 1 µM each time.
For the compound `CC(C)(C)n1cnc2ccc(-c3c[nH]c4ncc(-c5cccc(N6CCCS6(=O)=O)c5)nc34)cc21` [P-231, 2-[3-[7-(3-tert-butylbenzimidazol-5-yl)-5H-pyrrolo[2,3-b]pyrazin-2-yl]phenyl]-1,2-thiazolidine 1,1-dioxide], the IC50 at FLT3-ITD and at FLT3-D835Y was 0.0001 to 1 µM in each case.
On to `COc1cnc2[nH]cc(-c3ccc4ncn(-c5ccc(F)cc5)c4c3)c2c1` [P-103, 1-(4-fluorophenyl)-6-(5-methoxy-1H-pyrrolo[2,3-b]pyridin-3-yl)benzimidazole], for which the IC50 on FLT3-ITD and at FLT3-D835Y was 0.0001 to 1 µM throughout.
As to `C#Cc1cnc2[nH]cc(-c3ccc4ncn(C(C)(C)C)c4c3)c2n1` [P-259, 7-(3-tert-butylbenzimidazol-5-yl)-2-ethynyl-5H-pyrrolo[2,3-b]pyrazine], the half-maximal inhibitory concentration (IC50) against FLT3-ITD and against FLT3-D835Y was 0.0001 to 1 µM throughout.
In the case of `COc1ncc(-c2cnc3[nH]cc(-c4ccc5ncn(C6CCCNC6)c5c4)c3n2)cn1` (stereo not drawn) [P-264, 2-(2-methoxypyrimidin-5-yl)-7-[3-(3-piperidyl)benzimidazol-5-yl]-5H-pyrrolo[2,3-b]pyrazine], the IC50 against FLT3-ITD and against FLT3-D835Y was 0.0001 to 1 µM throughout.
Regarding `N#Cc1cc(-c2cnc3[nH]cc(-c4ccc5ncn(C6CCCNC6)c5c4)c3c2)ccc1F` (stereo not drawn) [P-208, 2-fluoro-5-[3-[3-(3-piperidyl)benzimidazol-5-yl]-1H-pyrrolo[2,3-b]pyridin-5-yl]benzonitrile], the IC50 against FLT3-ITD and against FLT3-D835Y was 0.0001 to 1 µM throughout.
Consider `Cn1cnc2ccc(-c3c[nH]c4ncc(-c5cnn(CC(F)(F)F)c5)cc34)cc21` [P-175, 1-methyl-6-[5-[1-(2,2,2-trifluoroethyl)pyrazol-4-yl]-1H-pyrrolo[2,3-b]pyridin-3-yl]benzimidazole], for which the IC50 on FLT3-ITD and at FLT3-D835Y was 0.0001 to 1 µM each time.
As to `CC(C)(C)n1cnc2ccc(-c3c[nH]c4ncc(-c5cccc(N6CCCCS6(=O)=O)c5)cc34)cc21` [P-221, 2-[3-[3-(3-tert-butylbenzimidazol-5-yl)-1H-pyrrolo[2,3-b]pyridin-5-yl]phenyl]thiazinane 1,1-dioxide], the IC50 at FLT3-ITD and at FLT3-D835Y was 0.0001 to 1 µM in each case.
As to `CC(C)(CO)n1cnc2ccc(-c3c[nH]c4ncc(-c5cccc(NS(C)(=O)=O)c5)nc34)cc21` [P-115, N-[3-[7-[3-(2-hydroxy-1,1-dimethyl-ethyl)benzimidazol-5-yl]-5H-pyrrolo[2,3-b]pyrazin-2-yl]phenyl]methanesulfonamide], the IC50 against FLT3-ITD and at FLT3-D835Y was 0.0001 to 1 µM in each case.
